We go through ten compounds from PubChem BioAssay (NCI).

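Dose response: 5 concentrations. Exposure: 48 h. Format: 96-well plates. Endpoint: linear interpolation; highest concentration if not reached. Definition used: TGI = concentration required for complete inhibition of growth.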

The subject of the first assay is DMS 114 small cell lung. The assay is described as follows: growth of human tumour cells (NCI), 48 h.
`O=C1CC2(C[C@@H]3CCCCCCCCC[C@@H](C3)C2)N1` (some centres undefined) came in with a TGI of 31.6 µM.

`COC1O[C@H]2CCN(C(=O)OCc3ccccc3)[C@H]2[C@H]1OCc1ccccc1` (some centres undefined): the TGI is more than 86.2 µM.

On to `Cc1c(Cl)cccc1NC(=O)C(=O)C1C(=O)CC(C)(C)CC1=O`, for which the TGI was more than 100 µM.

`O=C1O[C@@H](c2ccccc2)C[C@@H]1CN1CCOCC1` had a TGI of more than 100 µM.

In turn, `COc1ccc2nc(-c3ccc(OCc4ccccc4)cc3)ccc2c1` showed a TGI of more than 100 µM.

As for `COC1(C)CC2N(C(=O)c3ccccc3)N=C(c3ccccc3)CC2(C)O1` (centres undefined), the TGI was more than 100 µM.

The next assay relates to XF 498 CNS. Put plainly: growth of human tumour cells (NCI), 48 h.
Compound `C[N+](C)(C)CC(=O)N/N=c1\cc(C(=O)Nc2ccc(N=O)cc2C#N)oc2cc(O)ccc12` yielded a TGI of more than 100 µM.

Compound `N#CCCN(c1ccc(C=Nc2cccc([N+](=O)[O-])c2)cc1)S(=O)(=O)c1ccccc1` had a TGI of more than 100 µM.

As for `COc1ccc(/C(=C/n2ccnc2)C(=O)c2ccc(OC)c(OC)c2)cc1`, the TGI was more than 100 µM.

For `O=C1CC2(C[C@@H]3CCCCCCCCC[C@@H](C3)C2)N1` (some centres undefined), the TGI was 24.9 µM.

As for `COC1O[C@H]2CCN(C(=O)OCc3ccccc3)[C@H]2[C@H]1OCc1ccccc1` (some centres undefined), the TGI was more than 100 µM.

The compound `O=C1O[C@@H](c2ccccc2)C[C@@H]1CN1CCOCC1` displayed a TGI of more than 100 µM.

The compound `COc1ccc2nc(-c3ccc(OCc4ccccc4)cc3)ccc2c1` yielded a TGI of more than 100 µM.

`COC1(C)CC2N(C(=O)c3ccccc3)N=C(c3ccccc3)CC2(C)O1` (centres undefined): the TGI is more than 100 µM.

The test system of a further assay is DLD-1 colon. Put plainly: growth of human tumour cells (NCI), 48 h.
The compound `CC(C)CC(N)C(=O)OCN1C(=O)C2C3C=CC(C2C1=O)C1C2C(=O)N(COC(=O)C(N)CC(C)C)C(=O)C2C31` (centres undefined) displayed a TGI of more than 100 µM.

`C[N+](C)(C)CC(=O)N/N=c1\cc(C(=O)Nc2ccc(N=O)cc2C#N)oc2cc(O)ccc12` registered a TGI of more than 100 µM.

As to `N#CCCN(c1ccc(C=Nc2cccc([N+](=O)[O-])c2)cc1)S(=O)(=O)c1ccccc1`, the TGI was more than 100 µM.

`COc1ccc(/C(=C/n2ccnc2)C(=O)c2ccc(OC)c(OC)c2)cc1` showed a TGI of more than 100 µM.

`COC1O[C@H]2CCN(C(=O)OCc3ccccc3)[C@H]2[C@H]1OCc1ccccc1` (some centres undefined): the TGI is more than 100 µM.

On to `Cc1c(Cl)cccc1NC(=O)C(=O)C1C(=O)CC(C)(C)CC1=O`, for which the TGI was more than 100 µM.

Consider `O=C1O[C@@H](c2ccccc2)C[C@@H]1CN1CCOCC1`, for which the TGI was more than 100 µM.

As for `COc1ccc2nc(-c3ccc(OCc4ccccc4)cc3)ccc2c1`, the TGI was more than 100 µM.

The compound `COC1(C)CC2N(C(=O)c3ccccc3)N=C(c3ccccc3)CC2(C)O1` (centres undefined) came in with a TGI of more than 100 µM.

The next assay relates to LXFL 529 NSCLC. Put plainly: growth of human tumour cells (NCI), 48 h.
`CC(C)CC(N)C(=O)OCN1C(=O)C2C3C=CC(C2C1=O)C1C2C(=O)N(COC(=O)C(N)CC(C)C)C(=O)C2C31` (centres undefined): the TGI is more than 100 µM.

Consider `C[N+](C)(C)CC(=O)N/N=c1\cc(C(=O)Nc2ccc(N=O)cc2C#N)oc2cc(O)ccc12`, for which the TGI is more than 100 µM.

As for `N#CCCN(c1ccc(C=Nc2cccc([N+](=O)[O-])c2)cc1)S(=O)(=O)c1ccccc1`, the TGI is more than 100 µM.

`COc1ccc(/C(=C/n2ccnc2)C(=O)c2ccc(OC)c(OC)c2)cc1` showed a TGI of more than 100 µM.

Compound `O=C1CC2(C[C@@H]3CCCCCCCCC[C@@H](C3)C2)N1` (some centres undefined) had a TGI of 29.7 µM.

In turn, `COC1O[C@H]2CCN(C(=O)OCc3ccccc3)[C@H]2[C@H]1OCc1ccccc1` (some centres undefined) yielded a TGI of more than 100 µM.

With `Cc1c(Cl)cccc1NC(=O)C(=O)C1C(=O)CC(C)(C)CC1=O`, the TGI was more than 100 µM.

In the case of `O=C1O[C@@H](c2ccccc2)C[C@@H]1CN1CCOCC1`, the TGI is more than 100 µM.

With `COc1ccc2nc(-c3ccc(OCc4ccccc4)cc3)ccc2c1`, the TGI is more than 100 µM.

Consider `COC1(C)CC2N(C(=O)c3ccccc3)N=C(c3ccccc3)CC2(C)O1` (centres undefined), for which the TGI was more than 100 µM.

Another assay relates to M14 melanoma. The assay is described as follows: growth of human tumour cells (NCI), 48 h.
As for `CC(C)CC(N)C(=O)OCN1C(=O)C2C3C=CC(C2C1=O)C1C2C(=O)N(COC(=O)C(N)CC(C)C)C(=O)C2C31` (centres undefined), the TGI was more than 100 µM.

For the compound `C[N+](C)(C)CC(=O)N/N=c1\cc(C(=O)Nc2ccc(N=O)cc2C#N)oc2cc(O)ccc12`, the TGI is more than 100 µM.

Turning to `N#CCCN(c1ccc(C=Nc2cccc([N+](=O)[O-])c2)cc1)S(=O)(=O)c1ccccc1`, the TGI is more than 100 µM.

On to `COc1ccc(/C(=C/n2ccnc2)C(=O)c2ccc(OC)c(OC)c2)cc1`, for which the TGI is more than 100 µM.

The compound `O=C1CC2(C[C@@H]3CCCCCCCCC[C@@H](C3)C2)N1` (some centres undefined) showed a TGI of 28.8 µM.

Compound `COC1O[C@H]2CCN(C(=O)OCc3ccccc3)[C@H]2[C@H]1OCc1ccccc1` (some centres undefined) registered a TGI of more than 100 µM.

Compound `Cc1c(Cl)cccc1NC(=O)C(=O)C1C(=O)CC(C)(C)CC1=O` displayed a TGI of more than 100 µM.

For `O=C1O[C@@H](c2ccccc2)C[C@@H]1CN1CCOCC1`, the TGI was more than 100 µM.

For the compound `COc1ccc2nc(-c3ccc(OCc4ccccc4)cc3)ccc2c1`, the TGI was more than 100 µM.

`COC1(C)CC2N(C(=O)c3ccccc3)N=C(c3ccccc3)CC2(C)O1` (centres undefined) displayed a TGI of more than 100 µM.

A further assay has as its system HOP-18 NSCLC. The assay is described as follows: growth of human tumour cells (NCI), 48 h.
In turn, `CC(C)CC(N)C(=O)OCN1C(=O)C2C3C=CC(C2C1=O)C1C2C(=O)N(COC(=O)C(N)CC(C)C)C(=O)C2C31` (centres undefined) showed a TGI of more than 100 µM.

For the compound `C[N+](C)(C)CC(=O)N/N=c1\cc(C(=O)Nc2ccc(N=O)cc2C#N)oc2cc(O)ccc12`, the TGI was more than 100 µM.

Turning to `O=C1CC2(C[C@@H]3CCCCCCCCC[C@@H](C3)C2)N1` (some centres undefined), the TGI stood at 22.6 µM.

`COC1O[C@H]2CCN(C(=O)OCc3ccccc3)[C@H]2[C@H]1OCc1ccccc1` (some centres undefined) yielded a TGI of more than 100 µM.

In turn, `Cc1c(Cl)cccc1NC(=O)C(=O)C1C(=O)CC(C)(C)CC1=O` gave a TGI of more than 100 µM.

Consider `COc1ccc2nc(-c3ccc(OCc4ccccc4)cc3)ccc2c1`, for which the TGI is more than 100 µM.
